Our source for the IC50 values is patent US7160905B2, “Hydroxyethylene compounds with Asp2 inhibitory activity” (SmithKline Beecham p.l.c., priority 2001, dated 2007).

Read-outs that look alike come from different tables or passages of the source.

Holding throughout (assay type): biochemical
The target in one experiment is T1, Asp-1 (Homo sapiens, UniProt Q9Y5Z0).
T1 sequence (Q9Y5Z0 63-518): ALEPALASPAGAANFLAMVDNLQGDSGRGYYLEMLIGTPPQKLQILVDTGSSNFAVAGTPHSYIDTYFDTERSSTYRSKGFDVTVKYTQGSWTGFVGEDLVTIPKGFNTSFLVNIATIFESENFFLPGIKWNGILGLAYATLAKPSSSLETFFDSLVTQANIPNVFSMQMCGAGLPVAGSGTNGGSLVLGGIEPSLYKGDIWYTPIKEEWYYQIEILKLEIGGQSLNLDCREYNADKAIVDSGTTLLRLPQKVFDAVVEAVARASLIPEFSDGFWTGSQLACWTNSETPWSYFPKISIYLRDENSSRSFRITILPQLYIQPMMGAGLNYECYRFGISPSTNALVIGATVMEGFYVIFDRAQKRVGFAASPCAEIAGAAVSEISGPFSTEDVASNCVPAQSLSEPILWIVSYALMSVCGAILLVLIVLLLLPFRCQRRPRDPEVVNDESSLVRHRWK
In words: Asp-1 inhibitory assay (FAM-[SEVNLDAEFK]-TAMRA fluorescence). The conditions noted are these: Assay (II), 2 h at room temperature, pH 4.5. The method, then: (II) Asps-1 Inhibitory Assay
(§1) For each compound being assayed, in a 384 well plate, is added:— • a) 1 μl of a DMSO solution of the test compound (IC50 curve uses ten 1 in 2 serial dilutions from 500 μM). • b) 10 μl of substrate (FAM-[SEVNLDAEFK]-TAMRA) solution in buffer. This is prepared by diluting 2 ml of a 2 mM DMSO solution of the substrate into 400 ml of buffer (100 mM Sodium acetate pH=4.5, 1 l Milli-Q water, 0.06% Triton X-100 (0.5 ml/l), pH adjusted to 4.5 using glacial acetic acid). • c) 10 μl enzyme solution. This is prepared by diluting 4 ml of a 6.3 μM enzyme solution into 496 ml of buffer (100 mM Sodium acetate pH=4.5, 40 mM sodium chloride, 900 ml Milli-Q water, 100 ml glycerol, 0.2% CHAPS (2 g/l), pH adjusted to 4.5 using glacial acetic acid).
Blank wells (enzyme solution replaced by buffer) are included as controls on each plate. Wells are incubated for 2 h at room temperature and fluorescence read using a Tecan Ultra Fluorimeter/Spectrophotometer (485 nm excitation, 535 nm emission).

For a further experiment, the target named is Asp-2 (Homo sapiens, UniProt P56817). In words: Asp-2 inhibitory assay (FAM-[SEVNLDAEFK]-TAMRA fluorescence). As to conditions: Assay (I), 1 h at room temperature, pH 4.5. The method, then:
(I) Asp-2 Inhibitory Assay
For each compound being assayed, in a 384 well plate, is added:— • a) 1 μl of a DMSO solution of the test compound (IC50 curve uses ten 1 in 2 serial dilutions from 500 μM) • b) 10 μl of substrate (FAM-[SEVNLDAEFK]-TAMRA) solution in buffer. This is prepared by diluting 2 ml of a 2 mM DMSO solution of the substrate into 400 ml of buffer (100 mM Sodium acetate pH=4.5, 1 l Milli-Q water, 0.06% Triton X-100 (0.5 ml/l), pH adjusted to 4.5 using glacial acetic acid). Aminomethyl fluorescein (FAM) and tetramethyl rhodamine (TAMRA) are fluorescent molecules which co-operate to emit fluorescence at 535 nm upon cleavage of the SEVNLDAEFK peptide. • c) 10 μl enzyme solution. This is prepared by diluting 16 ml of a 500 nM enzyme solution into 384 ml of buffer (prepared as above).
(§2) Blank wells (enzyme solution replaced by buffer) are included as controls on each plate. Wells are incubated for 1 h at room temperature and fluorescence read using a Tecan Ultra Fluorimeter/Spectrophotometer (485 nm excitation, 535 nm emission).

Another experiment has as its target Cathepsin D (Homo sapiens, UniProt P07339). In words: Cathepsin D inhibitory assay (FAM-[SEVNLDAEFK]-TAMRA fluorescence). The conditions noted are these: Assay (III), 1 h at room temperature, pH 4.5; read-out: inhibition (CatD). The method, then:
(III) Cathepsin D Inhibitory Assay
as §1, with “diluting 1.6” for “diluting 4”, “a 200 unit/ml (in 10 mM HCl)” for “a 6.3 μM”, “into 398.4” for “into 496”, “buffer (prepared as above).” for “buffer (100 mM Sodium acetate pH=4.5, 40 mM sodium chloride, 900 ml Milli-Q water, 100 ml glycerol, 0.2% CHAPS (2 g/l), pH adjusted to 4.5 using glacial acetic acid).”
as §2

Chain of Asp-2 (P56817 46-501): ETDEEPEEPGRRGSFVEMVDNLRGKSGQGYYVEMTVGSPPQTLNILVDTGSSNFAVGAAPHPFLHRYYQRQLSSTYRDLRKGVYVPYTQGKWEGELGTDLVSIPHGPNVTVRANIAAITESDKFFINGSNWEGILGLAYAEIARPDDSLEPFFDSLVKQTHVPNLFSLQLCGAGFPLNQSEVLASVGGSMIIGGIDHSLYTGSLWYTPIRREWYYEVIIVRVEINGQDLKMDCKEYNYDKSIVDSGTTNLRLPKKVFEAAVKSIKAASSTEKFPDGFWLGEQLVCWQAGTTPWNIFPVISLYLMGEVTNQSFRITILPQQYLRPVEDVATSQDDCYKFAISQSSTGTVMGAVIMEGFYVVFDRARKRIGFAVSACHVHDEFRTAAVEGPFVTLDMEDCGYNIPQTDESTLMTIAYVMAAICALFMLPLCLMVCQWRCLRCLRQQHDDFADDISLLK
Chain of Cathepsin D (P07339 65-412, species assumed): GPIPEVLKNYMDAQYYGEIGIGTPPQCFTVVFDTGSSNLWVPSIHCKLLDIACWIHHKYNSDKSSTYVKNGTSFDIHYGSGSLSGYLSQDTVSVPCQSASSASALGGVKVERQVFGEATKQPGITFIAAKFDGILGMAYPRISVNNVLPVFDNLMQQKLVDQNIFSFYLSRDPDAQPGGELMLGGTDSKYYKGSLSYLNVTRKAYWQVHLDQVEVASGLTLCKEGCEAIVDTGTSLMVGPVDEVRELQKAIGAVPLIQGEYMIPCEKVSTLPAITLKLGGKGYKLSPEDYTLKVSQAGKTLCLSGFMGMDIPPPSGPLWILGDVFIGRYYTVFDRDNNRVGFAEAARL

`C[C@H](C[C@H](O)[C@H](Cc1ccccc1)NC(=O)c1cccc(S(C)(=O)=O)c1)C(=O)NCCC(C)(C)C` [Example E1, N-[(1S,2S,4R)-1-Benzyl-4-(3,3-dimethylbutylcarbamoyl)-2-hydroxypentyl]-3-methanesulfonyl-benzamide]: the IC50 at Asp-1 (read-out: Asp-1 IC50) is 7.7 µM; on Asp-2 (read-out: Asp-2 IC50) it was 400 nM.
Regarding `C[C@H](C[C@H](O)[C@H](Cc1ccccc1)NC(=O)c1ccc(S(C)(=O)=O)s1)C(=O)NCCC(C)(C)C` [Example E9, 5-Methanesulfonyl-thiophene-2-carboxylic acid [(1S,2S,4R)-1-benzyl-4-(3,3-dimethyl-butylcarbamoyl)-2-hydroxypentyl]-amide], the IC50 on Cathepsin D was 9.6 µM; at Asp-1 (read-out: inhibition (Asp-1)), 3.3 µM; at Asp-2 (read-out: inhibition (Asp-2)) it was 180 nM.
On to `C#CC[C@H](C[C@H](O)[C@H](Cc1ccccc1)NC(=O)c1cccc(S(C)(=O)=O)c1)C(=O)NC1CC2CCC1C2` (stereo partly shown) [Example E2], for which the values for the IC50 on Asp-1 (read-out: Asp-1 IC50) and at Asp-2 (read-out: Asp-2 IC50) were 5.57 µM and 330 nM, respectively.
